Values of other authors in patent US10674726B2, “Composition” (Conopco, Inc., priority 2013, dated 2020).

Settings: at neutral pH

Critical Micelle Concentration | Compound
30 mg/L | CCCCCCCC(CC(=O)O)OC(=O)CC(CCCCCCC)OC1OC(C)C(O)C(O)C1OC1OC(C)C(O)C(O)C1O (centres unmarked) [dirhamnolipid, 3-[3-[4,5-dihydroxy-6-methyl-3-(3,4,5-trihydroxy-6-methyloxan-2-yl)oxyoxan-2-yl]oxydecanoyloxy]decanoic acid]
20 mg/L | CCCCCCCC(CC(=O)O)OC(=O)CC(CCCCCCC)O[C@@H]1O[C@@H](C)[C@H](O)[C@@H](O)[C@H]1O (stereo partly drawn) [mono-rhamnolipid, 3-[3-[(2R,3R,4R,5R,6S)-3,4,5-trihydroxy-6-methyloxan-2-yl]oxydecanoyloxy]decanoic acid]
